# Test results published in ChEMBL document CHEMBL5385976, “Recognition of arylmethylidene derivatives of imidazothiazolotriazinones as novel tubulin polymerization inhibitors” (RSC Med Chem, 2024).
# Assays:
# Format in all cases: functional
# [1] = test system: SNB-19; test: Anticancer activity against human SNB-19 cells assessed as cell growth at 10 umol/L incubated for 48 hrs by SRB assay relative to control; settings: SNB-19, 48 h, dose 10 µmol/L, read-out: Activity
# [2] = test system: MOLT-4; test: Anticancer activity against human MOLT-4 cells assessed as cell growth at 10 umol/L incubated for 48 hrs by SRB assay relative to control; settings: MOLT-4, 48 h, dose 10 µmol/L, read-out: Activity
# [3] = test system: A498; test: Anticancer activity against human A498 cells assessed as cell growth at 10 umol/L incubated for 48 hrs by SRB assay relative to control; settings: A498, 48 h, dose 10 µmol/L, read-out: Activity
# [4] = test system: RXF 393; test: Anticancer activity against human RXF 393 cells assessed as cell growth at 10 umol/L incubated for 48 hrs by SRB assay relative to control; settings: RXF 393, 48 h, dose 10 µmol/L, read-out: Activity
# [5] = test system: SK-MEL-5; test: Anticancer activity against human SK-MEL-5 cells assessed as cell growth at 10 umol/L incubated for 48 hrs by SRB assay relative to control; settings: SK-MEL-5, 48 h, dose 10 µmol/L, read-out: Activity
# [6] = test system: Malme-3M; test: Anticancer activity against human Malme-3M cells assessed as cell growth at 10 umol/L incubated for 48 hrs by SRB assay relative to control; settings: dose 10 µmol/L, read-out: Activity
# [7] = test system: HT-29; test: Anticancer activity against human HT-29 cells assessed as cell growth at 10 umol/L incubated for 48 hrs by SRB assay relative to control; settings: HT-29, 48 h, dose 10 µmol/L, read-out: Activity
# [8] = test system: SNB-75; test: Anticancer activity against human SNB-75 cells assessed as cell growth at 10 umol/L incubated for 48 hrs by SRB assay relative to control; settings: SNB-75, 48 h, dose 10 µmol/L, read-out: Activity
# [9] = test system: SR; test: Anticancer activity against human SR cells assessed as cell growth at 10 umol/L incubated for 48 hrs by SRB assay relative to control; settings: dose 10 µmol/L, read-out: Activity
# [10] = test system: EKVX; test: Anticancer activity against human EKVX cells assessed as cell growth at 10 umol/L incubated for 48 hrs by SRB assay relative to control; settings: dose 10 µmol/L, read-out: Activity
# [11] = test system: SN12C; test: Anticancer activity against human SN12C cells assessed as cell growth at 10 umol/L incubated for 48 hrs by SRB assay relative to control; settings: dose 10 µmol/L, read-out: Activity
# [12] = test system: K562; test: Induction of cell cycle arrest in human K562 cells at G1 phase at 0.5 uM incubated for 3 days by RNase/PI staining based flow cytometry (reference value: 50 %); settings: time 3 day
# [13] = test system: HL-60(TB); test: Anticancer activity against human HL-60(TB) cells assessed as cell growth at 10 umol/L incubated for 48 hrs by SRB assay relative to control; settings: HL-60, 48 h, dose 10 µmol/L, read-out: Activity
# [14] = test system: K562; test: Induction of apoptosis in human K562 cells at 0.5 uM incubated for 3 days by RNase/PI staining based flow cytometry (reference value: 1.4 %); settings: time 3 day
# [15] = test system: IGROV-1; test: Anticancer activity against human IGROV-1 cells assessed as cell growth at 10 umol/L incubated for 48 hrs by SRB assay relative to control; settings: IGROV-1, 48 h, dose 10 µmol/L, read-out: Activity
# [16] = test system: KM12; test: Anticancer activity against human KM12 cells assessed as cell growth at 10 umol/L incubated for 48 hrs by SRB assay relative to control; settings: KM12, 48 h, dose 10 µmol/L, read-out: Activity
# [17] = test system: M14; test: Anticancer activity against human M14 cells assessed as cell growth at 10 umol/L incubated for 48 hrs by SRB assay relative to control; settings: M14, 48 h, dose 10 µmol/L, read-out: Activity
# [18] = test system: UACC-257; test: Anticancer activity against human UACC-257 cells assessed as cell growth at 10 umol/L incubated for 48 hrs by SRB assay relative to control; settings: UACC-257, 48 h, dose 10 µmol/L, read-out: Activity
# [19] = test system: HCC 2998; test: Anticancer activity against human HCC 2998 cells assessed as cell growth at 10 umol/L incubated for 48 hrs by SRB assay relative to control; settings: HCC 2998, 48 h, dose 10 µmol/L, read-out: Activity
# [20] = test system: A549; test: Anticancer activity against human A549 cells assessed as cell growth at 10 umol/L incubated for 48 hrs by SRB assay relative to control; settings: A549, 48 h, dose 10 µmol/L, read-out: Activity
# [21] = test system: SF-295; test: Anticancer activity against human SF-295 cells assessed as cell growth at 10 umol/L incubated for 48 hrs by SRB assay relative to control; settings: SF-295, 48 h, dose 10 µmol/L, read-out: Activity
# [22] = test system: Panel NCI-60 (60 carcinoma cell lines); test: Antiproliferative activity against human panel NCI-60 (60 carcinoma cell lines) assessed as mean cell growth at 10 umol/L incubated for 48 hrs by SRB assay relative to control; settings: dose 10 µmol/L, at 10 µM
# [23] = test system: K562; test: Induction of cell cycle arrest in human K562 cells at G2/M phase at 0.5 uM incubated for 3 days by RNase/PI staining based flow cytometry (reference value: 31 %); settings: time 3 day
# [24] = test system: DU-145; test: Anticancer activity against human DU-145 cells assessed as cell growth at 10 umol/L incubated for 48 hrs by SRB assay relative to control; settings: DU-145, 48 h, dose 10 µmol/L, read-out: Activity
# [25] = test system: OVCAR-5; test: Anticancer activity against human OVCAR-5 cells assessed as cell growth at 10 umol/L incubated for 48 hrs by SRB assay relative to control; settings: OVCAR-5, 48 h, dose 10 µmol/L, read-out: Activity
# [26] = test system: NCI-H322M; test: Anticancer activity against human NCI-H322M cells assessed as cell growth at 10 umol/L incubated for 48 hrs by SRB assay relative to control; settings: dose 10 µmol/L, read-out: Activity
# [27] = test system: NCI-H226; test: Anticancer activity against human NCI-H226 cells assessed as cell growth at 10 umol/L incubated for 48 hrs by SRB assay relative to control; settings: NCI-H226, 48 h, dose 10 µmol/L, read-out: Activity
# [28] = test system: NCI-H460; test: Anticancer activity against human NCI-H460 cells assessed as cell growth at 10 umol/L incubated for 48 hrs by SRB assay relative to control; settings: NCI-H460, 48 h, dose 10 µmol/L, read-out: Activity
# [29] = test system: COLO 205; test: Anticancer activity against human COLO 205 cells assessed as cell growth at 10 umol/L incubated for 48 hrs by SRB assay relative to control; settings: COLO 205, 48 h, dose 10 µmol/L, read-out: Activity
# [30] = test system: BT-549; test: Anticancer activity against human BT-549 cells assessed as cell growth at 10 umol/L incubated for 48 hrs by SRB assay relative to control; settings: BT-549, 48 h, dose 10 µmol/L, read-out: Activity
# [31] = test system: HCT-116; test: Anticancer activity against human HCT-116 cells assessed as cell growth at 10 umol/L incubated for 48 hrs by SRB assay relative to control; settings: HCT-116, 48 h, dose 10 µmol/L, read-out: Activity
SMILES,growth at 10 µM [1],growth at 10 µM [2],growth at 10 µM [3],growth at 10 µM [4],growth at 10 µM [5],growth at 10 µM [6],growth at 10 µM [7],growth at 10 µM [8],growth at 10 µM [9],growth at 10 µM [10],growth at 10 µM [11],Activity [12],growth at 10 µM [13],Activity [14],growth at 10 µM [15],growth at 10 µM [16],growth at 10 µM [17],growth at 10 µM [18],growth at 10 µM [19],growth at 10 µM [20],further results
CCN1C(=O)N(CC)C2C1NN=c1s/c(=C\c3ccc(Cl)cc3Cl)c(=O)n12 (configuration not stated),27.9%,12.9%,16.9%,61.1%,66.1%,50.4%,2.8%,19.7%,12.3%,50.1%,21.5%,13%,9.4%,5%,-43.3%,7.5%,13.8%,68.6%,7.2%,14.6%,growth at 10 µM [21]: -12.6%; Activity [22]: 18.2%; Activity [23]: 65%; growth at 10 µM [24]: 6%; growth at 10 µM [25]: 28.2%; growth at 10 µM [26]: 42.4%; growth at 10 µM [27]: 48.8%; growth at 10 µM [28]: 5.7%; growth at 10 µM [29]: -7.9%; growth at 10 µM [30]: 15.9%; growth at 10 µM [31]: 9.7%
COc1cc2c(c(OC)c1OC)-c1ccc(OC)c(=O)cc1[C@@H](NC(C)=O)CC2 [COLCHICINE],19%,6.7%,15.5%,15.3%,30.7%,39%,-29.9%,19.3%,5.4%,35.8%,46.8%,18%,13%,3.1%,-49%,3.7%,1.7%,24.9%,-59%,44.9%,growth at 10 µM [21]: -10.6%; Activity [22]: 8.4%; Activity [23]: 56%; growth at 10 µM [24]: 7.6%; growth at 10 µM [25]: 31.2%; growth at 10 µM [26]: 36.1%; growth at 10 µM [27]: 31%; growth at 10 µM [28]: 2.9%; growth at 10 µM [29]: -47.6%; growth at 10 µM [30]: 55.1%; growth at 10 µM [31]: 0.2%
